Assays:
Assay type in all cases: functional
[1] = test system: Radical scavenging activity; test: DPPH radical scavenging activity
[2] = test system: Radical scavenging activity; test: ABTS radical scavenging activity
[3] = test system: Radical scavenging activity; test: Superoxide radical scavenging activity

SMILES	IC50 [1]	IC50 [2]	IC50 [3]
COc1cc(/C=C/c2cc3oc(-c4ccc(O)c(O)c4)c(C(C)=O)c3c(=O)o2)ccc1O [METHYLINOSCAVIN C]	> 100 µM	12.3 µM	> 100 µM
O=C(O)/C=C/c1ccc(O)c(O)c1 [CAFFEIC ACID]	31.7 µM	2.8 µM	2.9 µM
CC1=CC(=O)[C@H](c2c(O)cc(/C=C/c3ccc(O)c(O)c3)oc2=O)[C@@H](c2ccc(O)c(O)c2)O1 [DAVALLIALACTONE]	3.4 µM	0.8 µM	2.3 µM
CC(=O)c1c(-c2ccc(O)c(O)c2)oc2cc(/C=C/c3ccc(O)c(O)c3)oc(=O)c12 [INOSCAVIN C]	> 100 µM	7.8 µM	> 100 µM
COc1cc(/C=C/c2cc(O)c([C@H]3C(=O)C=C(C)O[C@@H]3c3ccc(O)c(O)c3)c(=O)o2)ccc1O [METHYLDAVALLIALACTONE]	18.7 µM	1.5 µM	5.4 µM
